Entries after “also recorded” stand apart in the source; their conditions may differ.
Columns and labels:
[1] = system: antibodies to HIV-1; test: EIA of peptide-carrier conjugates with individual human sera; assay type: binding; settings: BSA-SMCC conjugate
Description: (§1) The free peptides or peptide-protein conjugates of Figures 1-13 were initially screened for immunoreactivity by coating each well of polystyrene microtiter EIA plates (Costar, Cambridge, Massachusetts, U.S.A.) with 0.2 ml amounts of concentrations of 5-50 micrograms/ml peptide in Tris buffer, 10 mM, pH 8.0, at 4°C overnight. Peptides or peptide-protein conjugates showing immunoreactivity by EIA were then further diluted for coating to determine the minimal concentrations required that allowed maximal immunoreactivity with antibodies to HIV, and minimal nonspecific reactivity with normal sera. The EIA tests were performed as follows: The coating solution was removed from each well and the wells were blocked at 37°C for 30 minutes with a solution of 50 mM phosphate, 100 mM NaCl, pH 7.4, 1% BSA, 0.5% gelatin. The wells were then aspirated dry with a microtiter plate washer and washed 3 times with a solution of 50 mM phosphate, 100 mM NaCl, .05% Tween 20, (trademark) pH 7.4 (PBST). A 1:101 dilution (in PBST with 1% BSA, 1% NRS) of the primate serum to be tested was then added as 0.2 ml to each washed well and the plates were incubated at 37°C for 30 minutes. The plates were then washed x 3 with PBST, and 0.2 ml amounts of a 1:2000 dilution of goat anti-human (GAH) peroxidase enzyme conjugate (Organon Teknika, Cappel, Melvern, Pennsylvania, U.S.A.) that recognized human IgG, IgA, and IgM were added to each well, and the plates were incubated for 30 minutes at 37°C. The plates were then washed x 3 with PBST and incubated with 0.2 ml/well substrate consisting of 0,1M citric acid pH 5.2, 0.1 mg/ml o-phenylene diamine, 0.01% H₂O₂, at room temperature in the dark for 10 minutes. Reactions were stopped with 50 microliters of 4N H₂SO₄, and the color development was quantitated in a Multiscan plate reader at A₄₉₂. In each series of experiments positive and negative controls were included, and all tests were done in duplicate or quadruplicate. Most peptides and peptide conjugates were initially screened against a 1:101 dilution of pools of HIV positive or HIV negative sera, and the same serum pool was used to allow quantitative comparison of immunoreactivity of different free peptides or peptide-protein conjugates.
Figure 10A illustrates the immunoreactivity of synthetic natural peptides 2S06 and 2S09 (Figure 1) when conjugated via their C-terminal GC spacer to KLH using the heterobifunctional linker MBS. […] However, the immunoreactivity of many of the positives was low (A₄₉₂ less than 1.0), and some of the negative samples had A₄₉₂ values slightly above 0.20, resulting in minimal discrimination between negatives and positives. This poor discrimination led to a search for an improved carrier protein and/or linker.
Figure 10B illustrates the reactivity of synthetic natural peptide IWGCSGKLICTTAVPGC (2S09) when conjugated through its C-terminus to BSA via the heterobifunctional linker SMCC. […] Improvement in assay performance as compared with results of Example 5A is noted with respect to negative samples having lower A₄₉₂ values, and most positive samples having higher A₄₉₂ values. […] Because of the possibility that some of the low responsiveness might be due to antigenic differences of genetic variants in the region of this epitope, as reported for HIV isolates from Zaire (Gnann et al., Science 237:1346-1349, 1987), the natural sequence variant peptide 5S67 (Figure 3) was synthesized, chemically linked to BSA with SMCC, and tested against the same sera, plus one additional negative serum sample (Figure 10C). […] This instigated a search for unnatural sequence variants of peptide 2S09 that would retain high immunoreactivity with most sera that contained antibodies to HIV-1, and yet retain low reactivity with sera devoid of antibodies to HIV. […]

[2] = system: antibodies to HIV-1; test: EIA of HIV-1 gp41 peptide-protein conjugates against serum pools; assay type: binding, human; settings: peptide conjugated via C-terminus to BSA (SMCC), coated at 10 micrograms peptide/ml; 1:101 dilution of HIV+ serum pool; Figure 1
Description: as §1
The peptides in Figures 1 and 5 were synthesized as described in Example 1 and conjugated to KLH or BSA as described in Example 2. These peptide-protein conjugates were coated to polystyrene microtiter plates all at a concentration 10 micrograms peptide/ml and evaluated for immunoreactivity as described in Example 3, using a 1:101 dilution of a pool of sera (HIV+/SIV+, respectively) containing antibodies to HIV-1 (Figure 1) or to HIV-2 (Figure 5), as well as pooled serum (HIV-/SIV-, respectively) containing no antibodies to HIV-1 or HIV-2. […] Since sera from patients infected with HIV-2 are relatively unavailable in the United States, the immunoreactivity of HIV-2 synthetic peptides was assessed using serum from macaques infected with SIV, obtained from the University of Washington Primate Center, Seattle, Washington, U.S.A. The AA sequence of SIV is nearly identical to HIV-2 in the region of the peptides synthesized (see Myers et al., Human Retroviruses and AIDS, 1988. A compilation of nucleic acid and amino acid sequences. Los Alamos National Laboratory, Los Alamos, New Mexico, 87545, USA).

[3] = system: SIV/HIV-2 antibodies; test: EIA of HIV-2 gp32 peptide-protein conjugates against macaque serum pools; assay type: binding; settings: peptide conjugated via C-terminus to BSA (SMCC), coated at 10 micrograms peptide/ml; 1:101 dilution of SIV+ macaque serum pool; Figure 5
Description: The free peptides or peptide-protein conjugates of Figures 1-13 were initially screened for immunoreactivity by coating each well of polystyrene microtiter EIA plates (Costar, Cambridge, Massachusetts, U.S.A.) with 0.2 ml amounts of concentrations of 5-50 micrograms/ml peptide in Tris buffer, 10 mM, pH 8.0, at 4°C overnight. Peptides or peptide-protein conjugates showing immunoreactivity by EIA were then further diluted for coating to determine the minimal concentrations required that allowed maximal immunoreactivity with antibodies to HIV, and minimal nonspecific reactivity with normal sera. The EIA tests were performed as follows: The coating solution was removed from each well and the wells were blocked at 37°C for 30 minutes with a solution of 50 mM phosphate, 100 mM NaCl, pH 7.4, 1% BSA, 0.5% gelatin. The wells were then aspirated dry with a microtiter plate washer and washed 3 times with a solution of 50 mM phosphate, 100 mM NaCl, .05% Tween 20, (trademark) pH 7.4 (PBST). […] Reactions were stopped with 50 microliters of 4N H₂SO₄, and the color development was quantitated in a Multiscan plate reader at A₄₉₂. […] Most peptides and peptide conjugates were initially screened against a 1:101 dilution of pools of HIV positive or HIV negative sera, and the same serum pool was used to allow quantitative comparison of immunoreactivity of different free peptides or peptide-protein conjugates.
The peptides in Figures 1 and 5 were synthesized as described in Example 1 and conjugated to KLH or BSA as described in Example 2. These peptide-protein conjugates were coated to polystyrene microtiter plates all at a concentration 10 micrograms peptide/ml and evaluated for immunoreactivity as described in Example 3, using a 1:101 dilution of a pool of sera (HIV+/SIV+, respectively) containing antibodies to HIV-1 (Figure 1) or to HIV-2 (Figure 5), as well as pooled serum (HIV-/SIV-, respectively) containing no antibodies to HIV-1 or HIV-2. […]

[4] = system: antibodies to HIV-2; test: EIA of HIV-2 peptide-BSA conjugates with macaque sera; assay type: binding; settings: macaque sera containing or not containing antibodies to HIV-2, Figure 7
Description: The synthetic peptides of Figures 1-8 were reduced with 10mM DTT, or with immobilized DTT (Reductacryl, Calbiochem, San Diego, California, U.S.A., 10 mg Reductacryl per mg peptide) overnight at 4°C, pH8 in 10mM borate or other buffers depending upon peptide solubility, with gentle mixing. KLH was dissolved at a concentration of 10-30 mg/ml in 10 mM phosphate buffer pH 7.2., and BSA was dissolved at a concentration of 20-80 mg/ml for treatment with heterobifunctional linkers MBS (m-Maleimidobenzoyl-N-hydroxysuccinimide ester), SPDP [N-Succinimidyl 3-(2 pyridyldithio)propionate], or Sulfo-SMCC [Sulfo-Succinimidyl 4(N-maleimidomethyl)-cyclohexane-1-carboxylate]. The heterobifunctional linkers were added to the protein solutions in a molar excess of linker to BSA of 100, or of linker to KLH of 1000. MBS was dissolved in DMF at 10mg/ml, SPDP was dissolved in absolute ethanol at 10mg/ml and each of these was added dropwise with mixing into the protein solution, whereas the Sulfo-SMCC dry powder was dissolved into the protein solution. Each protein-linker mixture was reacted at room temperature for 15 minutes to 1 hour and then free linker was separated from BSA-linker or KLH-linker by gel chromatography with Sephadex G25 using 50mM phosphate, pH 6 for KLH-MBS, 10mM acetate, 100 mM Nacl, pH 4.6 for BSA-SPDP, or 100 mM phosphate, 1 mM EDTA, pH 6.5 for BSA-SMCC. The reduced peptides were separated from DTT by Sephadex G10 column chromatography when soluble DTT was used, or by centrifugation followed by filtration through a 0.22 micron filter when Reductacryl was used. Reduced peptides were combined with linker treated KLH or BSA in molar ratios of 100-1000 peptide/KLH-MBS, 1-50 peptide/BSA-SMCC, and 0.1-10 peptide/BSA-SPDP. Each reduced peptide was added to the linker-treated protein with mixing, overlayed with N₂, and then mixed gently at room temperature for one hour, and then overnight at 4°C. The SMCC-BSA conjugates were further treated with a 1 mM final concentration of mercaptoethylamine for 4 hours, and then dialyzed overnight against 100 volumes of buffer (20mM phosphate, 1 mM EDTA, 0.05% sodium azide, pH 6.5) at 4°C. All other conjugates were adjusted to a final concentration of sodium azide of 0.05%. Optimal molar ratios of peptide/protein for the conjugates were determined by solubility and antigenicity (as evaluated by EIA).
The free peptides or peptide-protein conjugates of Figures 1-13 were initially screened for immunoreactivity by coating each well of polystyrene microtiter EIA plates (Costar, Cambridge, Massachusetts, U.S.A.) with 0.2 ml amounts of concentrations of 5-50 micrograms/ml peptide in Tris buffer, 10 mM, pH 8.0, at 4°C overnight. […]

[5] = system: antibody to HIV-1; test: EIA of p24 synthetic peptide-BSA conjugates with serum pools and individual sera; assay type: binding, human
Description: as §1
Figure 8 illustrates the immunoreactivity and AA sequences of synthetic peptides of the p24 protein of HIV-1, when conjugated to BSA via their C-termini using SMCC, and reacted with a pool of approximately 50 sera from persons containing antibody to HIV-1, or with a pool of approximately 30 sera from individuals devoid of antibody to HIV-1. […] No negative sera (0/85, 0%) reacted, and 17 positive sera (17/98, 17%) were immunoreactive. It has been reported that individuals lose antibodies to p24 during the course of progression from asymptomatic infection to clinical disease and AIDS (Franchini et al., Blood 69:(2):437-441, 1987, and Weber et al., Lancet i:119-122, 1987), which may explain the lower frequency of antibodies to this peptide in the sera tested.

[6] = BSA-SMCC conjugate, 85 individual sera without antibodies to HIV-1
[7] = BSA-SMCC conjugate, 98 individual sera with antibodies to HIV-1

Sequence | immunoreactivity with HIV-1 antibodies [2] | also measured
IWGCSGKMICTTAVPGC [5S76] | – | immunoreactivity with positive sera ([1]; 98 sera containing antibodies to HIV-1, Figures 10B, 10C, 11): strong immunoreactivity with some sera that reacted weakly in Figure 10B; positive samples giving A492 less than 1.0 ([1]; of 98 positive sera, Figure 11B): Five
ERYLKDQQLLGIIVGC [2S02] | significantly less immunoreactive | –
DQARLNSWGCAFRQVC [2S24] | – | immunoreactivity with SIV/HIV-2 antibodies [3]: maximally immunoreactive; also recorded: Significant immunoreactivity; also recorded: best immunoreactivity; discrimination of positive from negative samples [4]: most favorable performances
KLICTTAVPWNASWSGC [2S15] | higher reactivity; also recorded: Significant immunoreactivity | –
QQLLGIWGCSGKLICGC [3S36] | Significant immunoreactivity | –
AVERYLKDQQLLGC [2S01] | significantly less immunoreactive | –
ALGPAATLEEMMTACGC [5S94] | – | negative sera that reacted [5, 6]: 0/85; negative sera that reacted (percent) [5, 6]: 0%; positive sera immunoreactive [5, 7]: 17/98; positive sera immunoreactive (percent) [5, 7]: 17%; immunoreactivity with serum pools ([5]; BSA-SMCC conjugates, pool of approximately 50 positive sera and pool of approximately 30 negative sera, Figure 8): proved to be the immunoreactive peptide; also recorded: significant immunoreactivity
KDQQLLGIWGCSGKLGC [2S04] | Significant immunoreactivity | –
GCSGKLICTTAVPWNGC [2S11] | higher reactivity; also recorded: Significant immunoreactivity | –
YLKDQQLLGIWGCSGC [2S03] | significantly less immunoreactive | –
SWGCAFRQVCHTSVPGC [5S86] | – | discrimination of positive from negative samples [4]: most favorable performances
IKQLQARILAVERYLKDQQ [4S24, reference compound] | lower immunoreactivity | –
SGKLICTTAVPWNASGC [2S13] | higher reactivity; also recorded: Significant immunoreactivity | –
LLGIWGCSGKLICTTGC [2S06] | Significant immunoreactivity | –
SWGCAFRQVCHTTVPGC [2S27] | – | immunoreactivity with SIV/HIV-2 antibodies [3]: maximally immunoreactive; also recorded: Significant immunoreactivity; also recorded: best immunoreactivity; discrimination of positive from negative samples [4]: most favorable performances
GKLICTTAVPWNASWGC [3S55] | higher reactivity; also recorded: Significant immunoreactivity | –
LGIWGCSGKLICTTAGC [2S07] | Significant immunoreactivity | –
CSGKLICTTAVPWNAGC [3S51] | higher reactivity; also recorded: Significant immunoreactivity | –
RILAVERYLKDQQLLGIWGCSGKLIC [4S25, reference compound] | lower immunoreactivity; also recorded: lower or comparable immunoreactivity; also recorded: Significant immunoreactivity | –
